In patent publication US8524637B2, “Composition for controlling pests and method for controlling pests” (Sumitomo Chemical Company, Limited, priority 2008, dated 2013):

Test system: Rhizoctonia solani
Experiment: Cucumber seed treatment test against Rhizoctonia solani (Test Example 1)
Assay type: in vivo
Conditions: cucumber seeds, acetone solution, seven days after seeding
Description: An emulsifiable concentrate was obtained by mixing clothianidin and metconazole.
In accordance with Seed Treatment Example 5, cucumber (Sagami Hanjiro) seeds were smeared with the emulsifiable concentrate using a rotary seed treating machine (seed dresser, manufactured by Hans-Ulrich Hege GmbH).
The obtained treated seeds were allowed to stand overnight and sown on the soil with which each plastic pot was filled and then covered with the soil mixed with Rhizoctonia solani cultured in a bran culture medium. While sprinkling, culture was conducted in a greenhouse. Seven days after seeding, the number of seeds not showing epicotyl emergence was checked and severity was calculated using Equation 1 shown below. Based on the severity, the control value was calculated using Equation 2.
For comparison, acetone solutions each having a predetermined concentration of clothianidin or metconazole were prepared by mixing each of clothianidin and metconazole with acetone, and the same test was carried out. Severity=(number of seeds not showing epicotyl emergence)×100/(total number of sown seeds) Equation 1 Control value=100×(A−B)/A Equation 2 • A: Severity of plants of the chemical non-treated district • B: Severity of plants of the chemical treated district

Which Control value (clothianidin 200 g, metconazole 0 g per 100 kg of seeds) does the source give for `CN/C(=N\[N+](=O)[O-])NCc1cnc(Cl)s1` [Clothianidin, clothianidin] here?
The Control value was 4.

For `CC1(C)CCC(Cc2ccc(Cl)cc2)C1(O)Cn1cncn1` (centres unmarked) [Metconazole, metconazole], which Control value (clothianidin 0 g, metconazole 1 g per 100 kg of seeds) is on record?
The Control value was 39.
